Assay results published in ChEMBL document CHEMBL1201862, “PubChem BioAssay data set” (2004).
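Results reflect a 48-hour exposure of cells in 96-well plates to compound at five concentrations. GI50 marks 50% less growth.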 Activity calls are given as the source filed them. Cut-off read from the data, not from the text of the source: active = GI50 up to about 1.1 µM and inactive = higher.

How the values were obtained:
Assay in all cases: DTP human tumour cell line panel, 48 h
[1] = tested on: 786-0
[2] = tested on: COLO 205
[3] = tested on: OVCAR-8
[4] = tested on: NCI/ADR-RES
[5] = tested on: SK-OV-3
[6] = tested on: NCI-H226
[7] = tested on: A498
[8] = tested on: PC-3
[9] = tested on: SK-MEL-28
[10] = tested on: NCI-H23
[11] = tested on: SK-MEL-5
[12] = tested on: NCI-H522
[13] = tested on: U-251
[14] = tested on: UO-31
[15] = tested on: IGROV-1
[16] = tested on: HT-29
[17] = tested on: CAKI-1
[18] = tested on: SW-620
[19] = tested on: NCI-H460
[20] = tested on: UACC-257

Measured: GI50

CC(=O)OCC1OC(n2c(-c3ccc(C)cc3)cc(-c3ccccc3)c(C#N)c2=S)C(OC(C)=O)C(OC(C)=O)C1OC(C)=O (stereo unspecified)
inactive: [1] > 100 µM | [2] > 100 µM | [3] > 100 µM | [4] > 100 µM | [5] > 100 µM | [6] > 100 µM | [7] 31 µM | [8] > 100 µM | [9] > 100 µM | [10] > 100 µM | [11] 37.8 µM | [12] > 100 µM | [13] > 100 µM | [14] > 100 µM | [15] > 100 µM | [16] > 100 µM | [17] > 100 µM | [18] > 100 µM | [19] > 100 µM

CC(C)(C)C1=NN=C2c3ccccc3C(=O)C21 (stereo unspecified)
inactive: [1] 99.5 µM | [2] 37.8 µM | [20] 62.7 µM | [3] 43.6 µM | [4] 83.9 µM | [6] 41.7 µM | [7] 21.3 µM | [8] 35.6 µM | [9] 55.8 µM | [10] 49 µM | [11] 23 µM | [12] 35.4 µM | [13] 46.9 µM | [14] 4.78 µM | [15] 56.1 µM | [16] 28.2 µM | [17] 26.4 µM | [18] 65.6 µM | [19] 43.9 µM

N#C/C(C(=O)Nc1ccc(Cl)cc1)=C(/N)N1CCCCC1
inactive: [1] > 100 µM | [2] > 100 µM | [20] > 100 µM | [3] 41.2 µM | [4] 79.3 µM | [5] 72.6 µM | [6] 92.3 µM | [7] > 100 µM | [8] > 100 µM | [9] > 100 µM | [10] 64.4 µM | [11] > 100 µM | [13] 56.5 µM | [14] 22.3 µM | [15] 66.5 µM | [17] > 100 µM | [18] > 100 µM | [19] > 100 µM

NCCNS(=O)(=O)c1ccc(N)cc1
inactive: [1] > 100 µM | [2] > 100 µM | [20] > 100 µM | [3] > 100 µM | [4] > 100 µM | [5] > 100 µM | [6] > 100 µM | [7] > 100 µM | [8] > 100 µM | [9] > 100 µM | [10] > 100 µM | [11] > 100 µM | [12] > 100 µM | [13] > 100 µM | [14] > 100 µM | [15] > 100 µM | [16] > 100 µM | [17] > 100 µM | [18] > 100 µM

Brc1c(C#CCC2CCCCC2)ccc(C#CCC2CCCCC2)c1Br
inactive: [1] > 100 µM | [2] > 100 µM | [20] > 100 µM | [3] > 100 µM | [4] > 100 µM | [6] > 100 µM | [7] > 100 µM | [8] > 100 µM | [9] > 100 µM | [11] > 100 µM | [12] > 100 µM | [13] > 100 µM | [15] > 100 µM | [17] > 100 µM | [18] > 100 µM | [19] > 100 µM

Cc1c(/N=N/c2ccccc2)c(-c2ccccc2)n(C2OC(CO)C(O)C(O)C2O)c(=S)c1C#N (stereo unspecified)
inactive: [1] 5.14 µM | [2] 5.56 µM | [3] 3.99 µM | [4] 17.3 µM | [5] 11.1 µM | [6] 10.8 µM | [7] 14.4 µM | [8] 2.99 µM | [9] 4.03 µM | [10] 3.36 µM | [11] 2.33 µM | [12] 3.5 µM | [13] 4.08 µM | [14] 7.74 µM | [15] 5.75 µM | [16] 6.59 µM | [18] 4.97 µM | [19] 10.6 µM

Cn1c(=O)c2c(n(C)c1=O)n1c(=O)c3ccccc3nc1n2C
inactive: [1] 82.2 µM | [2] > 100 µM | [20] > 100 µM | [3] 97.9 µM | [4] > 100 µM | [5] > 100 µM | [6] 30.7 µM | [7] > 100 µM | [8] > 100 µM | [9] > 100 µM | [10] > 100 µM | [11] > 100 µM | [12] 90.4 µM | [13] 83.6 µM | [14] > 100 µM | [15] > 100 µM | [16] > 100 µM | [17] > 100 µM | [18] > 100 µM

Fc1ccc(/C=C2\COCC3=C2NC(=S)NC3c2ccc(F)cc2)cc1 (stereo unspecified)
inactive: [1] 18.3 µM | [2] 20.2 µM | [20] 18.7 µM | [3] 15.2 µM | [4] 19.1 µM | [5] 31 µM | [6] 21.1 µM | [7] 16 µM | [8] 17.3 µM | [10] 20.6 µM | [11] 19.4 µM | [12] 16.4 µM | [13] 20.5 µM | [14] 17.7 µM | [15] 24.9 µM | [17] 31.1 µM | [18] 19.7 µM | [19] 19.8 µM
